The METLIN SMRT retention time set (Domingo-Almenara et al. 2019)

assay: gradient 5% acetonitrile 3 min, to 50% in 2 min, to 85% in 15 min, held 3 min, 100 µL/min; conditions: column: Zorbax Extend-C18 2.1 x 50 mm; eluents: water / acetonitrile, 0.1% formic acid
How it was run: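 Using water and acetonitrile that each contained 0.1% formic acid, mixtures of ~100 pure standards were separated at 100 μL/min on a Zorbax Extend-C18 column (2.1 × 50 mm, 1.8 μm). The HPLC fed a quadrupole time-of-flight mass spectrometer working in positive and negative ionization mode, with dead and dwell volumes of 40 μL and 900 μL. Data were acquired over 3 months. Retention time was read from computationally picked adduct peaks after manual inspection of each.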

Going from `O=C(Nc1ccccc1-c1nc2ccccc2[nH]1)C1CC1` to `COc1ccccc1-c1noc(C2CCCN2C(=O)Nc2ccccc2Br)n1` (stereo not given), the RP-LC retention time rises from 623 s to 972 s.

Going from `Cc1ccc(NC(=O)N2CCN(Cc3nc4ccccc4o3)CC2)cc1` to `COc1ccc(CCC(=O)Nc2c(C(=O)N3CCN(c4ccccn4)CC3)oc3ccccc23)cc1`, the RP-LC retention time rises from 689 s to 834 s.

Compared with `CC(C)CCC(=O)NCCc1nc2cccnc2n1-c1ccccc1`, `CCOc1ccccc1C(=O)Nc1nnc(SC(C)c2ccccc2)s1` (stereo not given) is higher in RP-LC retention time: 717 s for the first, 1140 s for the second.

Compared with `CCOC(=O)c1nc(NCc2ccc(OC)cc2)c2ccccc2n1`, `CCOC(=O)c1cnc2nc(C)ccc2c1Nc1ccc(O)cc1` is lower in RP-LC retention time: 749 s for the first, 618 s for the second.

Going from `CC(=O)N1CCCc2cc(S(=O)(=O)N3CCC(C(=O)Nc4cccc(C)n4)CC3)ccc21` to `COC(=O)c1cc(S(=O)(=O)N2CCCC2C(=O)Nc2cccc(Br)c2)cn1C` (stereo not given), the RP-LC retention time rises from 684 s to 963 s.

First: Fc1ccc(-c2nc(-c3cccc(-c4ccn[nH]4)c3)no2)cc1
Second: O=S(=O)(NCc1nc(-c2cccc(-c3ccn[nH]3)c2)no1)c1ccc(F)cc1
The RP-LC retention time of the first is higher: 1000 s for the first, 765 s for the second.

Going from `O=C(Cn1cccc(-c2nc(-c3ccccc3)no2)c1=O)Nc1ccc(Cl)c(C(F)(F)F)c1` to `CC(C)c1noc(-c2cc(=O)n(CC(=O)Nc3ccccc3Cl)c3ccccc23)n1`, the RP-LC retention time rises from 1040 s to 1050 s.

First: O=c1cc[nH]c2c(C(F)(F)F)cccc12
Second: CN(C)c1cccc(C(=O)NCC(=O)Nc2nc3ccccc3[nH]2)c1
The RP-LC retention time of the first is higher: 609 s for the first, 594 s for the second.

First: Cn1nc(C(=O)Nc2ccccc2)c2c1CCN(C(=O)CCC(=O)N1CCOCC1)C2
Second: Cc1ccc2[nH]c(=O)c(CCC(=O)NCCN3CCOCC3)cc2c1
The RP-LC retention time of the first is higher: 668 s for the first, 577 s for the second.

Going from `CCSc1nnc(-c2nn(C)c3c2CN(C(=O)c2ccc(F)c(F)c2)CC3)n1C` to `CCC(C)C(=O)N1CCCN(C2=NS(=O)(=O)C(c3ccc(C(C)C)cc3)=C2C)CC1` (stereo not given), the RP-LC retention time rises from 763 s to 974 s.

First: O=C(NCCc1ccc(Cl)cc1)C1CCN(C(=O)C2Sc3ccccc3NC2=O)CC1 (stereo not given)
Second: NC(=O)C1CCN(S(=O)(=O)Cc2c(F)cccc2Cl)CC1
The RP-LC retention time of the first is higher: 774 s for the first, 649 s for the second.

Going from `CN(CC1(C)CCOCC1)C(=O)COc1ccc(F)cc1` to `CCN(CC)C(=O)C1CCCN(S(=O)(=O)c2ccc(OC)c(C)c2)C1` (stereo not given), the RP-LC retention time rises from 770 s to 881 s.

First: COc1cccc(Cn2nc3n(Cc4ccc(C)cc4)c(=O)c4nn(C)cc4n3c2=O)c1
Second: Cc1cccc(-n2c(=O)c3sccc3n(Cc3nc(-c4cccc(Br)c4)no3)c2=O)c1
The RP-LC retention time of the first is lower: 935 s for the first, 1130 s for the second.

First: COc1ccc(C2(C(=O)Nc3ccc4c(c3)Sc3ncccc3C(=O)N4C)CC2)cc1
Second: Cc1ccc(-c2cn(CC(=O)Nc3cc(C)ccc3C)c(=O)o2)cc1
The RP-LC retention time of the first is lower: 902 s for the first, 954 s for the second.

Compared with `CCOC(=O)c1noc2ncnc(Nc3ccc(C)cc3C)c12`, `CCOC(=O)c1cn(CC(=O)Nc2ccc3c(c2)OCO3)c2nc(C)ccc2c1=O` is lower in RP-LC retention time: 1030 s for the first, 715 s for the second.

First: Cc1ccc2c(Nc3ccc4c(c3)OCCO4)c(C(=O)N3CCOCC3)cnc2n1
Second: Cc1ccc2[nH]cc(CCN3CC(C(=O)NCCN4CCOCC4)CC3=O)c2c1 (stereo not given)
The RP-LC retention time of the first is lower: 577 s for the first, 602 s for the second.

Compared with `CSc1ccc(-c2noc(Cn3ncn4nc(-c5cccs5)cc4c3=O)n2)cc1`, `COc1ccc(-c2noc(Cc3nnc(-c4ccc(Cl)cc4)o3)n2)cc1OC` is lower in RP-LC retention time: 1130 s for the first, 966 s for the second.

Compared with `Cc1cc(C)n2nc(SCC(=O)NC3CCCC(C)C3C)nc2n1` (stereo not given), `Cc1noc(C)c1CC(=O)NC1CCN(c2ccc(=O)n(CCOc3ccccc3)n2)C1` (stereo not given) is lower in RP-LC retention time: 776 s for the first, 701 s for the second.

Going from `CCN(CC)C(=O)c1ccc2c(c1)N(CC(=O)NC)C(=O)C1CCCCN21` (stereo not given) to `Cc1ccc(C)c(S(=O)(=O)N2CCCCCC2c2nnc(C)o2)c1` (stereo not given), the RP-LC retention time rises from 684 s to 908 s.

Compared with `Cc1cc(C)cc(NS(=O)(=O)c2cc(-c3[nH]ncc3C(=O)N3CCCC3)oc2C)c1`, `O=C(Cc1c(F)cccc1Cl)N1CCN(c2cc(-c3cccs3)[nH]n2)CC1` is higher in RP-LC retention time: 746 s for the first, 840 s for the second.

First: Cc1nnc(NC(=O)C2CCN(C(=O)NC3CC3)CC2)s1
Second: CN(C)C[C@@H]1CN(c2ncccn2)C[C@H]1NS(=O)(=O)c1cccc(C#N)c1
The RP-LC retention time of the first is lower: 582 s for the first, 601 s for the second.

Going from `CCOc1ccccc1-c1noc(-c2nnn3c2COC(c2ccc(Cl)cc2)C3)n1` (stereo not given) to `Cc1occc1-c1nnc2sc(COc3ccc(Br)cc3)nn12`, the RP-LC retention time falls from 1150 s to 1040 s.

Work on `COc1ccc2c(c1)OC1(C)CC2C(S(=O)(=O)c2ccc(C(C)C)cc2)C(=O)N1C` (stereo not given) yielded an RP-LC retention time of 1120 s.
